{"source": "ChEMBL document CHEMBL1137575", "about": "“Target specific virtual screening: optimization of an estrogen receptor screening platform” (J Med Chem, 2007)", "key": {"[1]": {"molecular_target": "T1, Estrogen receptor (Homo sapiens, UniProt P03372)", "T1 sequence (P03372 whole entry)": "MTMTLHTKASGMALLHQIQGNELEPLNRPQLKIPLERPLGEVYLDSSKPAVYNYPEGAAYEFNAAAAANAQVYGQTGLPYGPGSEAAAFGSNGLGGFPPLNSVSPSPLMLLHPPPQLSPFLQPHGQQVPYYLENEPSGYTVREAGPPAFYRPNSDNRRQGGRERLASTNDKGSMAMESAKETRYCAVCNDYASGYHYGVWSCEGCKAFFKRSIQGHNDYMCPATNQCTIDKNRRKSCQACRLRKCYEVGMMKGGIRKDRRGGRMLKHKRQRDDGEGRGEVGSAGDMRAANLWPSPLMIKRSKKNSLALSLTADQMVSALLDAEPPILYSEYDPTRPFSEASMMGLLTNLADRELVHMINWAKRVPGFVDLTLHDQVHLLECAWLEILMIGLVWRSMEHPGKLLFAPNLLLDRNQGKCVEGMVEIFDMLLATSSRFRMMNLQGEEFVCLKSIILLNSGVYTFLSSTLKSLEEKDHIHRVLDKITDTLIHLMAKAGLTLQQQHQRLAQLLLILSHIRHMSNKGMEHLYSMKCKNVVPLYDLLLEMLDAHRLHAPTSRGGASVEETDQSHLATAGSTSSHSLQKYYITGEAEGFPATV", "assay": "Displacement of fluoromone from human recombinant ERalpha by fluorescence polarization assay"}, "[2]": {"molecular_target": "Estrogen receptor beta (Homo sapiens, UniProt Q92731)", "sequence (Q92731 whole entry)": "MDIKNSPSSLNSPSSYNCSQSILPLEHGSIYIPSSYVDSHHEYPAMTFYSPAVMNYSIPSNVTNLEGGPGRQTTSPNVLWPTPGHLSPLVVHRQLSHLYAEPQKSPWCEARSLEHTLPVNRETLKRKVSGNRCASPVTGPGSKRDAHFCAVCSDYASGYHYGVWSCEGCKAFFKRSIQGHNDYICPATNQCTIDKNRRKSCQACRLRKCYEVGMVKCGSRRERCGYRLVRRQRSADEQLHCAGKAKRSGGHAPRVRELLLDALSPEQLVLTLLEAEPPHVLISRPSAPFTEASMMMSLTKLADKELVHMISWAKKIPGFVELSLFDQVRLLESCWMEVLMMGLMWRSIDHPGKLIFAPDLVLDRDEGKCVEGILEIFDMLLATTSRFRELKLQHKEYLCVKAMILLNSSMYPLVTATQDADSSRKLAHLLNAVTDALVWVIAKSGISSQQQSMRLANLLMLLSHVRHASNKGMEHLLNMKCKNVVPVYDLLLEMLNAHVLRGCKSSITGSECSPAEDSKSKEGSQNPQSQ", "assay": "Displacement of fluoromone from human recombinant ERbeta by fluorescence polarization assay"}, "[3]": {"species": "Homo sapiens", "assay": "Selectivity for ERalpha over ERbeta"}, "[4]": {"test_system": "MCF7", "assay": "Antiproliferative activity against MCF7 cells after 72 hrs by MTT assay", "format": "functional, Homo sapiens"}, "[5]": {"test_system": "MCF7", "assay": "Cytotoxicity against MCF7 cells after 72 hrs by LDH assay", "format": "functional, cell-based", "settings": "Homo sapiens"}}, "note": "Calls of active or inactive are those of the source. The rule behind the calls is not given here."}
{"smiles": "COc1cc(C2Nc3ccccc3C(=O)N2Cc2ccccc2)ccc1O", "note": "(stereo unspecified)", "values": [{"measurement": "IC50", "setting": "[1]", "result": 1.1, "unit": "µM"}, {"measurement": "IC50", "setting": "[2]", "result": 6.2, "unit": "µM"}, {"measurement": "Ratio IC50", "setting": "[3]", "result": 4.4}, {"measurement": "Activity", "setting": "[4]", "result": 15, "unit": "µM"}, {"measurement": "Activity", "setting": "[5]", "result": "Active"}]}
{"smiles": "COC(=O)C1=C(N)Oc2cc(O)ccc2C1c1ccc(OCc2ccccc2F)cc1", "note": "(stereo unspecified)", "values": [{"measurement": "IC50", "setting": "[1]", "result": 0.053, "unit": "µM"}, {"measurement": "IC50", "setting": "[2]", "result": 0.78, "unit": "µM"}, {"measurement": "Ratio IC50", "setting": "[3]", "result": 13.7}, {"measurement": "Activity", "setting": "[4]", "result": 11.4, "unit": "µM"}, {"measurement": "Activity", "setting": "[5]", "result": "Active"}]}
{"smiles": "CC/C(=C(\\c1ccccc1)c1ccc(OCCN(C)C)cc1)c1ccccc1", "note": "[TAMOXIFEN]", "values": [{"measurement": "Activity", "setting": "[4]", "result": 4.6, "unit": "µM"}]}
{"smiles": "COC(=O)C1=C(N)Oc2cc(O)ccc2C1c1ccc(OCc2ccc(C)cc2)cc1", "note": "(stereo unspecified)", "values": [{"measurement": "IC50", "setting": "[1]", "result": 0.056, "unit": "µM"}, {"measurement": "IC50", "setting": "[2]", "result": 0.915, "unit": "µM"}, {"measurement": "Ratio IC50", "setting": "[3]", "result": 17}, {"measurement": "Activity", "setting": "[4]", "result": 7, "unit": "µM"}, {"measurement": "Activity", "setting": "[5]", "result": "Active"}]}
